The results in this text go back to US9210927B2, “Pesticidal compositions and processes related thereto” (Dow AgroSciences LLC, priority 2013, dated 2015).

The subject of one assay is CEW (Helicoverpa zea). Kind of assay: Bioassays on Corn Earworm (CEW), 128-well diet tray assay. The assay is classed as in vivo. Particulars: Helicoverpa zea, 168 h; percent mortality, second instar larvae, 50 μg/cm^2 on artificial diet, five to seven days, 25° C.; read-out: CEW Rating. The method, then: (§1) Bioassays on Beet Armyworm (“BAW”) and Corn Earworm (“CEW”) and Cabbage Looper (“CL”)
(§2) Certain molecules disclosed in this document were tested against BAW and CEW and CL using procedures described in the following examples. In the reporting of the results, the “BAW & CEW & CL Rating Table” was used (See Table Section).
Bioassays on CEW (Helicoverpa zea)
Bioassays on CEW were conducted using a 128-well diet tray assay. one to five second instar CEW larvae were placed in each well (3 mL) of the diet tray that had been previously filled with 1 mL of artificial diet to which 50 μg/cm^2 of the test compound (dissolved in 50 μL of 90:10 acetone-water mixture) had been applied (to each of eight wells) and then allowed to dry. Trays were covered with a clear self-adhesive cover, and held at 25° C., 14:10 light-dark for five to seven days. Percent mortality was recorded for the larvae in each well; activity in the eight wells was then averaged. The results are indicated in the table entitled “Table 3: Assay Results” (See Table Section).

For the next assay, the system named is BAW (Spodoptera exigua). Briefly: Bioassays on Beet Armyworm (BAW), 128-well diet tray assay. The assay is classed as in vivo. Conditions: Spodoptera exigua, 168 h, read-out: BAW Rating. The method, then:
as §1, §2
Bioassays on BAW (Spodoptera exigua)
Bioassays on BAW were conducted using a 128-well diet tray assay. one to five second instar BAW larvae were placed in each well (3 mL) of the diet tray that had been previously filled with 1 mL of artificial diet to which 50 μg/cm^2 of the test compound (dissolved in 50 μL of 90:10 acetone-water mixture) had been applied (to each of eight wells) and then allowed to dry. Trays were covered with a clear self-adhesive cover, and held at 25° C., 14:10 light-dark for five to seven days. Percent mortality was recorded for the larvae in each well; activity in the eight wells was then averaged. The results are indicated in the table entitled “Table 3: Assay Results” (See Table Section).

For `O=C(CNC(=O)c1ccc(/C=C\C(c2cc(Cl)c(Cl)c(Cl)c2)C(F)(F)F)cc1Br)NCC(F)(F)F` (stereo not shown) [AC95, (Z)-2-Bromo-N-(2-oxo-2-((2,2,2-trifluoroethyl)amino)ethyl)-4-(4,4,4-trifluoro-3-(3,4,5-trichlorophenyl)but-1-en-1-yl)benzamide], the pest or weed control at 50 µg/cm2 in the assay with CEW (Helicoverpa zea) and in the assay on BAW (Spodoptera exigua) was 50 to 100% in each case.

Take `O=C(CNC(=O)c1ccc(/C=C/C(c2cc(Cl)c(F)c(Cl)c2)C(F)(F)F)cc1[N+](=O)[O-])NCC(F)(F)F` (stereo not shown) [AC98]: the pest or weed control at 50 µg/cm2 in the assay on CEW (Helicoverpa zea) and with BAW (Spodoptera exigua) was 50 to 100% in each case.

With `O=C(CNC(=O)c1ccc(/C=C/C(c2ccc(F)c(Cl)c2)C(F)(F)F)cc1Br)NCC(F)(F)F` (stereo not shown) [AC99], the pest or weed control at 50 µg/cm2 with CEW (Helicoverpa zea) and in the assay on BAW (Spodoptera exigua) was 50 to 100% each time.

Regarding `CC(=O)N1CCC(NC(=O)c2ccc(/C=C/C(c3cc(Cl)c(Cl)c(Cl)c3)C(F)(F)F)cc2Br)CC1` (stereo not shown) [AC103, (E)-N-(1-Acetylpiperidin-4-yl)-2-bromo-4-(4,4,4-trifluoro-3-(3,4,5-trichlorophenyl)but-1-en-1-yl)benzamide], the pest or weed control at 50 µg/cm2 in the assay on CEW (Helicoverpa zea) and in the assay with BAW (Spodoptera exigua) was 50 to 100% in each case.

On to `N#CCN1CCC(NC(=O)c2ccc(/C=C/C(c3cc(Cl)c(Cl)c(Cl)c3)C(F)(F)F)cc2Br)CC1` (stereo not shown) [AC107], for which the pest or weed control at 50 µg/cm2 in the assay with CEW (Helicoverpa zea) lay within 50 to 100%; in the assay with BAW (Spodoptera exigua), 0 to 50%.

For `CONC(=O)CNC(=O)c1ccc(/C=C/C(c2cc(Cl)c(Cl)c(Cl)c2)C(F)(F)F)cc1Br` (stereo not shown) [AC110], the pest or weed control at 50 µg/cm2 with CEW (Helicoverpa zea) and with BAW (Spodoptera exigua) was 50 to 100% each time.

As to `C=CCNC(=O)CNC(=O)c1ccc(/C=C/C(c2cc(Cl)c(Cl)c(Cl)c2)C(F)(F)F)cc1Br` (stereo not shown) [AC111], the pest or weed control at 50 µg/cm2 in the assay with CEW (Helicoverpa zea) and with BAW (Spodoptera exigua) was 50 to 100% each time.

Turning to `O=C(NCCc1ccc(Cl)nc1)c1ccc(/C=C/C(c2cc(Cl)c(Cl)c(Cl)c2)C(F)(F)F)cc1Br` (stereo not shown) [AC113], the pest or weed control at 50 µg/cm2 in the assay on CEW (Helicoverpa zea) lay within 50 to 100%; in the assay on BAW (Spodoptera exigua), 0 to 50%.

Regarding `O=C(NC1CCNCC1)c1ccc(/C=C/C(c2cc(Cl)c(Cl)c(Cl)c2)C(F)(F)F)cc1Br` (stereo not shown) [AC114, (E)-2-Bromo-N-(piperidin-4-yl)-4-(4,4,4-trifluoro-3-(3,4,5-trichlorophenyl)but-1-en-1-yl)benzamide], the pest or weed control at 50 µg/cm2 in the assay on CEW (Helicoverpa zea) was 0 to 50%; with BAW (Spodoptera exigua), 50 to 100%.

Consider `Cc1cc(/C=C/C(c2cc(Cl)cc(Cl)c2)C(F)(F)F)ccc1C(=S)NCc1ccc(Cl)nc1` (stereo not shown) [AC115, (E)-N-((6-Chloropyridin-3-yl)methyl)-4-(3-(3,5-dichlorophenyl)-4,4,4-trifluorobut-1-en-1-yl)-2-methylbenzothioamide], for which the pest or weed control at 50 µg/cm2 with CEW (Helicoverpa zea) and with BAW (Spodoptera exigua) was 50 to 100% each time.

Consider `O=C(NC1CCc2cc(/C=C/C(c3cc(Cl)c(Cl)c(Cl)c3)C(F)(F)F)ccc21)C1CC1` (stereo not shown) [BC6], for which the pest or weed control at 50 µg/cm2 with CEW (Helicoverpa zea) and with BAW (Spodoptera exigua) was 50 to 100% in each case.

Turning to `O=C(NC1CCCc2cc(/C=C/C(c3cc(Cl)c(Cl)c(Cl)c3)C(F)(F)F)ccc21)C1CC1` (stereo not shown) [BC7], the pest or weed control at 50 µg/cm2 in the assay on CEW (Helicoverpa zea) and in the assay with BAW (Spodoptera exigua) was 50 to 100% in each case.

Consider `O=C(Cc1ccc(Cl)nc1)NC1CCc2cc(/C=C/C(c3cc(Cl)c(F)c(Cl)c3)C(F)(F)F)ccc21` (stereo not shown) [BC9], for which the pest or weed control at 50 µg/cm2 with CEW (Helicoverpa zea) and in the assay on BAW (Spodoptera exigua) was 50 to 100% in each case.

On to `O=C(CC(F)(F)F)NCC(=O)n1ccc2cc(/C=C/C(c3cc(Cl)c(F)c(Cl)c3)C(F)(F)F)ccc21` (stereo not shown) [BC13, (E)-N-(2-(5-(3-(3,5-Dichloro-4-fluorophenyl)-4,4,4-trifluorobut-1-en-1-yl)-1H-indol-1-yl)-2-oxoethyl)-3,3,3-trifluoropropanamide], for which the pest or weed control at 50 µg/cm2 with CEW (Helicoverpa zea) and with BAW (Spodoptera exigua) was 50 to 100% throughout.

`O=C(CC(F)(F)F)NCc1ccc(/C=C/C(c2cc(Cl)cc(Cl)c2)C(F)(F)F)cc1` (stereo not shown) [CC3]: the pest or weed control at 50 µg/cm2 with CEW (Helicoverpa zea) and with BAW (Spodoptera exigua) was 50 to 100% in each case.

In the case of `O=C(NCc1ccc(/C=C/C(c2cc(Cl)cc(Cl)c2)C(F)(F)F)cc1Cl)C1CC1` (stereo not shown) [CC8], the pest or weed control at 50 µg/cm2 in the assay with CEW (Helicoverpa zea) and in the assay on BAW (Spodoptera exigua) was 50 to 100% in each case.

With `FC(F)(F)C(/C=C/c1ccc(CNC(=S)C2CC2)c(Cl)c1)c1cc(Cl)c(Cl)c(Cl)c1` (stereo not shown) [CC20], the pest or weed control at 50 µg/cm2 in the assay on CEW (Helicoverpa zea) and in the assay on BAW (Spodoptera exigua) was 50 to 100% in each case.

With `O=C(NCc1ccc(/C=C/C(c2cc(Cl)cc(Cl)c2)C(F)(F)F)cc1C(F)(F)F)C1CC1` (stereo not shown) [CC21], the pest or weed control at 50 µg/cm2 in the assay with CEW (Helicoverpa zea) and in the assay with BAW (Spodoptera exigua) was 50 to 100% in each case.

In the case of `O=C(CC(F)(F)F)NCc1ccc(/C=C/C(c2cc(Cl)c(Cl)c(Cl)c2)C(F)(F)F)cc1C(F)(F)F` (stereo not shown) [CC24], the pest or weed control at 50 µg/cm2 with CEW (Helicoverpa zea) and in the assay with BAW (Spodoptera exigua) was 50 to 100% each time.

For `O=C(CC(F)(F)F)NCc1ccc(/C=C/C(c2cc(Cl)c(Cl)c(Cl)c2)C(F)(F)F)cc1F` (stereo not shown) [CC27], the pest or weed control at 50 µg/cm2 with CEW (Helicoverpa zea) and in the assay with BAW (Spodoptera exigua) was 50 to 100% in each case.

Take `O=C(NCc1ccc(/C=C/C(c2cc(Cl)c(Cl)c(Cl)c2)C(F)(F)F)cc1F)C1CC1` (stereo not shown) [CC28]: the pest or weed control at 50 µg/cm2 in the assay with CEW (Helicoverpa zea) and with BAW (Spodoptera exigua) was 50 to 100% throughout.

Regarding `CS(=O)(=O)CCC(=O)NCc1ccc(/C=C/C(c2cc(Cl)c(Cl)c(Cl)c2)C(F)(F)F)cc1Cl` (stereo not shown) [CC30, (E)-N-(2-Chloro-4-(4,4,4-trifluoro-3-(3,4,5-trichlorophenyl)but-1-en-1-yl)benzyl)-3-(methylsulfonyl)propanamide], the pest or weed control at 50 µg/cm2 with CEW (Helicoverpa zea) and in the assay with BAW (Spodoptera exigua) was 50 to 100% throughout.

In the case of `CN(C)C(=O)NCc1ccc(/C=C/C(c2cc(Cl)c(Cl)c(Cl)c2)C(F)(F)F)cc1Cl` (stereo not shown) [CC36, (E)-3-(2-Chloro-4-(4,4,4-trifluoro-3-(3,4,5-trichlorophenyl)but-1-en-1-yl)benzyl)-1,1-dimethylurea], the pest or weed control at 50 µg/cm2 with CEW (Helicoverpa zea) and in the assay with BAW (Spodoptera exigua) was 50 to 100% each time.

As to `CCNC(=S)NCc1ccc(/C=C/C(c2cc(Cl)c(Cl)c(Cl)c2)C(F)(F)F)cc1Cl` (stereo not shown) [CC37, (E)-1-(2-Chloro-4-(4,4,4-trifluoro-3-(3,4,5-trichlorophenyl)but-1-en-1-yl)benzyl)-3-ethylthiourea], the pest or weed control at 50 µg/cm2 in the assay with CEW (Helicoverpa zea) and in the assay on BAW (Spodoptera exigua) was 50 to 100% in each case.

Regarding `C=CCNC(=S)NCc1ccc(/C=C/C(c2cc(Cl)c(Cl)c(Cl)c2)C(F)(F)F)cc1Cl` (stereo not shown) [CC38], the pest or weed control at 50 µg/cm2 in the assay with CEW (Helicoverpa zea) and in the assay with BAW (Spodoptera exigua) was 50 to 100% in each case.

Consider `O=C(NCc1ncc(/C=C/C(c2cc(Cl)c(Cl)c(Cl)c2)C(F)(F)F)cc1Cl)C1CC1` (stereo not shown) [CC45], for which the pest or weed control at 50 µg/cm2 with CEW (Helicoverpa zea) and with BAW (Spodoptera exigua) was 50 to 100% throughout.

On to `O=C(NNc1ccc(/C=C/C(c2cc(Cl)c(Cl)c(Cl)c2)C(F)(F)F)cc1)C1CC1` (stereo not shown) [CC50, (E)-N′-(4-(4,4,4-Trifluoro-3-(3,4,5-trichlorophenyl)but-1-en-1-yl)phenyl)cyclopropanecarbohydrazide], for which the pest or weed control at 50 µg/cm2 in the assay with CEW (Helicoverpa zea) and in the assay with BAW (Spodoptera exigua) was 50 to 100% throughout.

`O=C(CC(F)(F)F)NNc1ccc(/C=C/C(c2cc(Cl)c(Cl)c(Cl)c2)C(F)(F)F)cc1` (stereo not shown) [CC51]: the pest or weed control at 50 µg/cm2 with CEW (Helicoverpa zea) and in the assay on BAW (Spodoptera exigua) was 50 to 100% in each case.

For `O=C(CC(F)(F)F)NCc1ccc(/C=C\C(c2cc(Cl)c(Cl)c(Cl)c2)C(F)(F)F)cc1` (stereo not shown) [CC54, (Z)-3,3,3-Trifluoro-N-(4-(4,4,4-trifluoro-3-(3,4,5-trichlorophenyl)but-1-en-1-yl)benzyl)propanamide], the pest or weed control at 50 µg/cm2 with CEW (Helicoverpa zea) and in the assay on BAW (Spodoptera exigua) was 50 to 100% throughout.

Take `FC(F)(F)C(/C=C/c1ccc(-n2cncn2)cc1)c1cc(Cl)cc(Cl)c1` (stereo not shown) [DC1, (E)-1-(4-(3-(3,5-Dichlorophenyl)-4,4,4-trifluorobut-1-en-1-yl)phenyl)-1H-1,2,4-triazole]: the pest or weed control at 50 µg/cm2 in the assay with CEW (Helicoverpa zea) and in the assay with BAW (Spodoptera exigua) was 50 to 100% in each case.

For `FC(F)(F)c1cc(C(/C=C/c2ccc(-n3cncn3)cc2)C(F)(F)F)cc(C(F)(F)F)c1` (stereo not shown) [DC16], the pest or weed control at 50 µg/cm2 in the assay with CEW (Helicoverpa zea) and in the assay on BAW (Spodoptera exigua) was 50 to 100% throughout.

Turning to `N#Cc1cc(/C=C/C(c2cc(Cl)cc(C(F)(F)F)c2)C(F)(F)F)ccc1-n1cncn1` (stereo not shown) [DC33], the pest or weed control at 50 µg/cm2 in the assay with CEW (Helicoverpa zea) and in the assay with BAW (Spodoptera exigua) was 50 to 100% throughout.

For `N#Cc1cc(/C=C/C(c2cc(Cl)cc(Cl)c2)C(F)(F)F)ccc1-n1cnc([N+](=O)[O-])n1` (stereo not shown) [DC37], the pest or weed control at 50 µg/cm2 with CEW (Helicoverpa zea) and in the assay on BAW (Spodoptera exigua) was 50 to 100% each time.

As for `N#Cc1cc(/C=C/C(c2cc(Cl)cc(Cl)c2)C(F)(F)F)ccc1-n1cnc(N)n1` (stereo not shown) [DC38], the pest or weed control at 50 µg/cm2 in the assay on CEW (Helicoverpa zea) and in the assay with BAW (Spodoptera exigua) was 50 to 100% in each case.

Turning to `CC(=O)Nc1ncn(-c2ccc(/C=C/C(c3cc(Cl)cc(Cl)c3)C(F)(F)F)cc2C#N)n1` (stereo not shown) [DC39], the pest or weed control at 50 µg/cm2 with CEW (Helicoverpa zea) and with BAW (Spodoptera exigua) was 50 to 100% in each case.
